Laboratory results: patent US20060166985A1, “Pyrrolydin-2-one derivatives as inhibitors of thrombin and factor xa” (priority 2002, published 2006)
pKi: −log10 of the molar value.

Biological target: human Thrombin (Homo sapiens, UniProt P00734)
Assay: In vitro assay for inhibition of Thrombin (chromogenic or fluorogenic assay)
Assay type: biochemical
Settings: Example 2 chromogenic assay, other Examples fluorogenic assay, read-out: thrombin inhibitory Ki
Experimental: Thrombin inhibitory activity is measured by the ability to inhibit human α-thrombin in a chromogenic assay using N-p-tosyl-gly-pro-lys p-nitroanilide as the chromogenic substrate, or in a fluorogenic assay using Rhodamine 110, bis-(CBZ-L-valyl-L-prolyl-L-arginine amide) as the fluorogenic substrate.
The compound was diluted from a 10 mM stock solution in dimethylsulfoxide at appropriate concentrations. Assay was performed at room temperature using buffer consisting of: 50 mM HEPES, 150 mM NaCl, 5 mM CaCl2, 0.1% PEG, pH 7.4. containing human Thrombin (final conc. of 1 nM). Compound and enzyme were preincubated for 15 min prior to addition of the substrate (final conc. of 100 μM). The reaction was stopped after 30 min with the addition of soybean trypsin inhibitor or H-D-PHE-PRO-ARG-Chloromethylketone. […] To obtain IC50 values the data were analysed using ActivityBase® and XLfit®.
Compounds were diluted from a 10 mM stock solution in dimethylsulfoxide at appropriate concentrations. Assay was performed at room temperature using buffer consisting of: 50 mM HEPES, 150 mM NaCl, 5 mM CaCl2, 0.1% PEG, pH 7.4. containing human Thrombin (final conc. Of 0.2 nM). Compound and enzyme were preincubated for 15 min prior to addition of the substrate (final conc. of 10 μM). The reaction was stopped after 3 hrs with the addition of H-D-PHE-PRO-ARG-Chloromethylketone. […] To obtain IC50 values the data were analysed using ActivityBase® and XLfit®.

| pKi | Compound |
| --- | --- |
| > 7.60 | CC[C@H](C)[C@@H](C(=O)N1CCOCC1)N1CC[C@H](N(CC(=O)NC)S(=O)(=O)CCc2ccc(Cl)s2)C1=O [Example 39, N^2-{[2-(5-chlorothien-2-yl)ethyl]sulfonyl}-N^1-methyl-N^2-{(3S)-1-[(1S,2S)-2-methyl-1-(morpholin-4-ylcarbonyl)butyl]-2-oxopyrrolidin-3-yl}glycinamide] |
| > 7.30 | CN(C)C(=O)C[C@@H](C(=O)N1CCOCC1)N1CC[C@H](NS(=O)(=O)CCc2ccc(Cl)s2)C1=O [Example 32] |
| > 7.00 | O=C([C@H](c1cccs1)N1CC[C@H](NS(=O)(=O)CCc2ccc(Cl)cc2)C1=O)N1CCOCC1 [Example 74, 2-(4-chlorophenyl)-N-{(3S)-1-[(1R)-2-(4-morpholinyl)-2-oxo-1-(2-thienyl)ethyl]-2-oxo-3-pyrrolidinyl}ethanesulfonamide] |
| > 7.30 | COC[C@@H](C(=O)N1CCOCC1)N1CC[C@H](NS(=O)(=O)CCc2ccc(Cl)s2)C1=O [Example 15, 2-(5-chlorothien-2-yl)-N-{(3S)-1-[(1S)-1-(methoxymethyl)-2-morpholin-4-yl-2-oxoethyl]-2-oxopyrrolidin-3-yl}ethanesulfonamide] |
| > 7.30 | O=C([C@H](Cc1cscn1)N1CC[C@H](NS(=O)(=O)CCc2ccc(Cl)s2)C1=O)N1CCOCC1 [Example 71, 2-(5-chloro-2-thienyl)-N-{(3S)-1-[(1S)-2-(4-morpholinyl)-2-oxo-1-(1,3-thiazol-4-ylmethyl)ethyl]-2-oxo-3-pyrrolidinyl)ethanesulfonamide] |
| > 7.60 | C[C@@H](C(=O)N1CCOCC1)N1CC[C@H](N(CC(N)=O)S(=O)(=O)CCc2ccc(Cl)s2)C1=O [Example 20, N^2-{[2-(5-Chlorothien-2-yl)ethyl]sulfonyl}-N^2-{(3S)-1-[(1S)-1-methyl-2-morpholin-4-yl-2-oxoethyl]-2-oxopyrrolidin-3-yl}glycinamide] |
| > 7.60 | CC[C@H](C)[C@@H](C(=O)N1CCOCC1)N1CC[C@H](NS(=O)(=O)CC(C)c2ccc(Cl)s2)C1=O (stereo partly drawn) [Example 57, 2-(5-chloro-2-thienyl)-N-{(3S)-1-[(1S,2S)-2-methyl-1-(4-morpholinylcarbonyl)butyl]-2-oxo-3-pyrrolidinyl}-1-propanesulfonamide] |
| > 8.00 | CO[C@H](C)[C@@H](C(=O)N1CCOCC1)N1CC[C@H](NS(=O)(=O)CCc2ccc(Cl)s2)C1=O [Example 17, 2-(5-chlorothien-2-yl)-N-{(3S)-1-[(1S,2R)-2-methoxy-1-(morpholin-4-ylcarbonyl)propyl]-2-oxopyrrolidin-3-yl}ethanesulfonamide] |
| > 7.60 | O=C([C@H](Cc1ccccc1)N1CC[C@H](NS(=O)(=O)CCc2ccc(Cl)s2)C1=O)N1CCOCC1 [Example 13, N-{(3S)-1-[(1S)-1-benzyl-2-morpholin-4-yl-2-oxoethyl]-2-oxopyrrolidin-3-yl}-2-(5-chlorothien-2-yl)ethanesulfonamide] |
| > 8.00 | O=C([C@H](Cc1cccs1)N1CC[C@H](NS(=O)(=O)CCc2ccc(Cl)s2)C1=O)N1CCOCC1 [Example 23, 2-(5-chlorothien-2-yl)-N-{(3S)-1-[(1S)-2-morpholin-4-yl-2-oxo-1-(thien-2-ylmethyl)ethyl]-2-oxopyrrolidin-3-yl}ethanesulfonamide] |
| > 7.00 | C[C@@H](C(=O)N1CCOCC1)N1CC[C@H](NS(=O)(=O)CC2COc3cc(Cl)ccc32)C1=O (stereo partly drawn) [Example 64, 1-(6-chloro-2,3-dihydro-1-benzofuran-3-yl)-N-{(3S)-1-[(1S)-1-methyl-2-(4-morpholinyl)-2-oxoethyl]-2-oxo-3-pyrrolidinyl}methanesulfonamide] |
| > 7.30 | Cc1noc(C[C@@H](C(=O)N2CCOCC2)N2CC[C@H](NS(=O)(=O)CC(C)c3ccc(Cl)s3)C2=O)n1 (stereo partly drawn) [Example 60, 2-(5-chloro-2-thienyl)-N-{(3S)-1-[(1S)-1-[(3-methyl-1,2,4-oxadiazol-5-yl)methyl]-2-(4-morpholinyl)-2-oxoethyl]-2-oxo-3-pyrrolidinyl}-1-propanesulfonamide] |
| > 7.00 | O=C([C@H](CCN1CCCCC1)N1CC[C@H](NS(=O)(=O)CCc2ccc(Cl)s2)C1=O)N1CCOCC1 [Example 94, 2-(5-chloro-2-thienyl)-N-{(3S)-1-[(1S)-1-(4-morpholinylcarbonyl)-3-(1-piperidinyl)propyl]-2-oxo-3-pyrrolidinyl}ethanesulfonamide] |
| > 7.60 | CC[C@@H](C(=O)N1CCOCC1)N1CC[C@H](NS(=O)(=O)CCc2ccc(Cl)s2)C1=O [Example 5, 2-(5-chlorothien-2-yl)-N-{(3S)-1-[(1S)-1-(morpholin-4-ylcarbonyl)propyl]-2-oxopyrrolidin-3-yl}ethanesulfonamide] |
| > 6.70 | C[C@@H](C(=O)N1CCOCC1)N1CC[C@H](NS(=O)(=O)CCc2ccc(Cl)cc2Cl)C1=O [Example 42, 2-(2,4-dichlorophenyl)-N-{(3S)-1-[(1S)-1-methyl-2-morpholin-4-yl-2-oxoethyl]-2-oxopyrrolidin-3-yl}ethanesulfonamide] |
| > 7.60 | COCC[C@@H](C(=O)N1CCOCC1)N1CC[C@H](NS(=O)(=O)CCc2ccc(Cl)s2)C1=O [Example 88] |
| > 8.00 | CC[C@H](C)[C@@H](C(=O)N1CCOCC1)N1CC[C@H](N(CC(=O)N(C)C)S(=O)(=O)CCc2ccc(Cl)s2)C1=O [Example 40, N^2-{[2-(5-chlorothien-2-yl)ethyl]sulfonyl)-N^1,N^1-dimethyl-N^2-{(3S)-1-[(1S,2S)-2-methyl-1-(morpholin-4-ylcarbonyl)butyl]-2-oxopyrrolidin-3-yl}glycinamide] |
| > 7.30 | Cn1cnc(C[C@@H](C(=O)N2CCOCC2)N2CC[C@H](NS(=O)(=O)CCc3ccc(Cl)s3)C2=O)n1 [Example 80, 2-(5-chloro-2-thienyl)-N-{(3S)-1-[(1S)-1-[(1-methyl-1H-1,2,4-triazol-3-yl)methyl]-2-(4-morpholinyl)-2-oxoethyl]-2-oxo-3-pyrrolidinyl}ethanesulfonamide] |
| > 7.00 | CC(CS(=O)(=O)N[C@H]1CCN([C@@H](C)C(=O)N2CCOCC2)C1=O)c1ccc(Cl)s1 (stereo partly drawn) [Example 54, 2-(5-chloro-2-thienyl)-N-{(3S)-1-[(1S)-1-methyl-2-(4-morpholinyl)-2-oxoethyl]-2-oxo-3-pyrrolidinyl}-1-propanesulfonamide] |
| > 7.00 | C[C@@H](C(=O)N1CCOCC1)N1CC[C@H](NS(=O)(=O)/C=C(/c2ccc(Cl)s2)C(F)(F)F)C1=O [Example 41, (1E)-2-(5-chlorothien-2-yl)-3,3,3-trifluoro-N-{(3S)-1-[(1S)-1-methyl-2-morpholin-4-yl-2-oxoethyl]-2-oxopyrrolidin-3-yl}prop-1-ene-1-sulfonamide] |
| > 8.00 | CCOC[C@@H](C(=O)N1CCOCC1)N1CC[C@H](NS(=O)(=O)CCc2ccc(Cl)s2)C1=O [Example 85, 2-(5-chloro-2-thienyl)-N-{(3S)-1-[(1S)-1-[(ethyloxy)methyl]-2-(4-morpholinyl)-2-oxoethyl]-2-oxo-3-pyrrolidinyl}ethanesulfonamide] |
| > 8.00 | CC(C)OC[C@@H](C(=O)N1CCOCC1)N1CC[C@H](NS(=O)(=O)CCc2ccc(Cl)s2)C1=O [Example 84, 2-(5-chloro-2-thienyl)-N-{(3S)-1-[(1S)-1-{[(1-methylethyl)oxy]methyl}-2-(4-morpholinyl)-2-oxoethyl]-2-oxo-3-pyrrolidinyl}ethanesulfonamide] |
| > 7.00 | COC[C@@H](C(=O)N1CCOCC1)N1CC[C@H](NS(=O)(=O)CC2COc3cc(Cl)ccc32)C1=O (stereo partly drawn) [Example 65, 1-(6-chloro-2,3-dihydro-1-benzofuran-3-yl)-N-{(3S)-1-[(1S)-1-[(methyloxy)methyl]-2-(4-morpholinyl)-2-oxoethyl]-2-oxo-3-pyrrolidinyl}methanesulfonamide] |
| > 8.00 | CC[C@H](C)[C@@H](C(=O)N1CCOCC1)N1CC[C@H](NS(=O)(=O)CCc2ccc(Cl)s2)C1=O [Example 10, 2-(5-chlorothien-2-yl)-N-{(3S)-1-[(1S,2S)-2-methyl-1-(morpholin-4-ylcarbonyl)butyl]-2-oxopyrrolidin-3-yl}ethanesulfonamide] |
| > 6.70 | CS(=O)(=O)CC[C@@H](C(=O)N1CCOCC1)N1CC[C@H](NS(=O)(=O)CCc2ccc(Cl)cc2)C1=O [Example 99, 2-(4-chlorophenyl)-N-{(3S)-1-[(1S)-3-(methylsulfonyl)-1-(4-morpholinylcarbonyl)propyl]-2-oxo-3-pyrrolidinyl}ethanesulfonamide] |
| > 7.30 | O=C([C@H](Cc1ccc(F)cc1)N1CC[C@H](NS(=O)(=O)CCc2ccc(Cl)s2)C1=O)N1CCOCC1 [Example 70, 2-(5-chloro-2-thienyl)-N-{(3S)-1-[(1S)-1-[(4-fluorophenyl)methyl]-2-(4-morpholinyl)-2-oxoethyl]-2-oxo-3-pyrrolidinyl}ethanesulfonamide] |
| > 8.00 | CC(C)[C@@H](C(=O)N1CCOCC1)N1CC[C@H](NS(=O)(=O)CCc2ccc(Cl)s2)C1=O [Example 8, 2-(5-chlorothien-2-yl)-N-{(3S)-1-[(1S)-2-methyl-1-(morpholin-4-ylcarbonyl)propyl]-2-oxopyrrolidin-3-yl}ethanesulfonamide] |
| > 6.70 | O=C(O)C[C@@H](C(=O)N1CCOCC1)N1CC[C@H](NS(=O)(=O)CCc2ccc(Cl)s2)C1=O [Example 46] |
